Read-outs that look alike come from different tables or passages of the source.
What was measured:
[1] = rat, in vivo, cited from earlier work; for p.o. AUC0-inf / p.o. Cmax: po, 25 mg/kg
[2] = rat, in vivo; for i.v. AUC0-inf / i.v. CL / i.v. t1/2: iv, 2.5 mg/kg; for p.o. AUC0-inf / p.o. Cmax: po, 25 mg/kg
[3] = system: M. tuberculosis strain H37Rv; assay type: cell-based, Mycobacterium tuberculosis; conditions: for fold more potent in MIC than the 3′-α-fluoro diastereomer: 14 vs 15, 16 vs 17, M. tuberculosis H37Rv
[4] = biological target: MbtA (Mycobacterium tuberculosis, UniProt P71716); assay type: biochemical; conditions: for Ki: read-out: Ki^app, apparent Ki against MbtA; for fold more potent in MbtA inhibition than the 3′-α-fluoro diastereomer: 14 vs 15, 16 vs 17
[5] = Single dose pharmacokinetics in cannulated rats

Sequence of MbtA (P71716 whole entry): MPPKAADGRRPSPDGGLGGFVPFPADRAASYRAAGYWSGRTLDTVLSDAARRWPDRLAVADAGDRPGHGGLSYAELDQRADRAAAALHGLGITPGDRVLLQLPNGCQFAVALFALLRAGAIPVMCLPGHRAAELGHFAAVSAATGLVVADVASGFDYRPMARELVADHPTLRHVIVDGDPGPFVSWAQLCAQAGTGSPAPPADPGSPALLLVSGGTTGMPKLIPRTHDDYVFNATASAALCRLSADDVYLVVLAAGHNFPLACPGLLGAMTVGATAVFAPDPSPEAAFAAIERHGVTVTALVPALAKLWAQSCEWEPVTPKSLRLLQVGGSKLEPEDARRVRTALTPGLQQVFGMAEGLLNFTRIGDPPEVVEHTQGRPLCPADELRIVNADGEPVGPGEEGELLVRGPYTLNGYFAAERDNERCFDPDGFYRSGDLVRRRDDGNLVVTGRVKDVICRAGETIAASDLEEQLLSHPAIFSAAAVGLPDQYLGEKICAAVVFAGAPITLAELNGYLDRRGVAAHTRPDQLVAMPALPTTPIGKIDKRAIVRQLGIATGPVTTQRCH

SMILES | F (relative oral bioavailability) [2] [%] | i.v. AUC0-inf [2] [μg.min.mL^–1] | i.v. CL [2] [mL.min^–1.kg^–1] | i.v. t1/2 [2] [min] | p.o. AUC0-inf [2] [μg.min.mL^–1] | p.o. Cmax [2] [μg.mL^–1] | MIC [3] [µM] | Ki [4] [nM] | other results
Nc1ncnc2c1ncn2[C@@H]1O[C@H](COS(=O)(=O)NC(=O)c2ccccc2O)[C@@H](O)[C@H]1O [compound 10, 5′-O-[N-(salicyl)sulfamoyl]adenosine] | – | – | – | – | – | – | – | – | i.v. AUC0-inf ([1]; iv, 2.5 mg/kg): 519 ± 115 μg.min.mL^–1; i.v. t1/2 ([1]; iv, 2.5 mg/kg): 11.2 ± 2.2 min; p.o. AUC0-inf [1]: 66 ± 41 μg.min.mL^–1; p.o. Cmax [1]: 0.40 ± 0.20 μg.mL^–1; F (relative oral bioavailability) [1]: 1.3 ± 0.7%
Nc1ncnc2c1ncn2[C@@H]1O[C@H](CNS(=O)(=O)NC(=O)c2ccccc2O)[C@@H](O)[C@H]1O [compound 11] | – | – | – | – | – | – | – | – | i.v. AUC0-inf ([1]; iv, 2.5 mg/kg): 304 ± 60 μg.min.mL^–1; i.v. CL ([1]; iv, 2.5 mg/kg): 8.4 ± 1.9 mL.min^–1.kg^–1; i.v. t1/2 ([1]; iv, 2.5 mg/kg): 10.6 ± 0.7 min; p.o. AUC0-inf [1]: 100 ± 14 μg.min.mL^–1; p.o. Cmax [1]: 0.70 ± 0.07 μg.mL^–1; F (relative oral bioavailability) [1]: 3.5 ± 0.2%
CCN(CC)CC.Nc1ncnc2c1ncn2[C@@H]1O[C@H](CNS(=O)(=O)NC(=O)c2ccccc2O)[C@@H](O)[C@H]1F [compound 12, 9-[2,5-Dideoxy-2-fluoro-5-{N-(N-2-hydroxybenzoyl)sulfamoyl}amino-β-D-ribofuranosyl]adenine Triethylammonium Salt] | 1.8 ± 0.9 | 1040 ± 330 | 2.5 ± 0.9 | 32.5 ± 7.4 | 187 ± 11 | 0.46 ± 0.30 | 0.19 | 1.7 to 1.8 | Ki ([4]; listed as C00001): 1.7 ± 0.1 nM
CCN(CC)CC.Nc1ncnc2c1ncn2[C@@H]1O[C@H](CNS(=O)(=O)NC(=O)c2ccccc2O)[C@@H](O)[C@@H]1F [compound 13, 9-[2,5-Dideoxy-2-fluoro-5-{N-(N-2-hydroxybenzoyl)sulfamoyl}amino-β-D-arabinofuranosyl]adenine Triethylammonium Salt] | 4.7 ± 1.1 | 913 ± 65 | 2.7 ± 0.2 | 31.7 ± 1.9 | 422 ± 70 | 1.09 ± 0.03 | 0.15 | 1.7 to 1.8 | Ki ([4]; listed as C00003): 1.8 ± 0.1 nM
CCN(CC)CC.Nc1ncnc2c1ncn2[C@@H]1O[C@H](CNS(=O)(=O)NC(=O)c2ccccc2O)[C@H](F)[C@H]1O [compound 14, 9-[3,5-Dideoxy-3-fluoro-5-{N-(N-2-hydroxybenzoyl)sulfamoyl}amino-β-D-xylofuranosyl]adenine Triethylammonium Salt] | 2.3 ± 0.4 | 366 ± 33 | 6.9 ± 0.3 | 17.4 ± 1.4 | 84 ± 12 | 0.64 ± 0.22 | 0.60 | 0.6 ± 0.3 | fold more potent in MIC than the 3′-α-fluoro diastereomer [3]: fourfold; fold more potent in MbtA inhibition than the 3′-α-fluoro diastereomer [4]: approximately 10 fold
CCN(CC)CC.Nc1ncnc2c1ncn2[C@@H]1O[C@H](CNS(=O)(=O)NC(=O)c2ccccc2O)[C@@H](F)[C@H]1O [compound 15, 9-[3,5-Dideoxy-3-fluoro-5-{N-(N-2-hydroxybenzoyl)sulfamoyl}amino-β-D-ribofuranosyl]adenine Triethylammonium Salt] | 3.5 ± 0.2 | 807 ± 78 | 3.1 ± 0.3 | 37.0 ± 1.7 | 266 ± 2 | 0.92 ± 0.04 | 2.3 | 6.4 ± 0.3 | –
CCN(CC)CC.Nc1ncnc2c1ncn2[C@@H]1O[C@H](CNS(=O)(=O)NC(=O)c2ccccc2O)[C@H](F)[C@H]1F [compound 16, 9-[2,3,5-Trideoxy-2,3-difluoro-5-{N-(N-2-hydroxybenzoyl)sulfamoyl}amino-β-D-xylofuranosyl]adenine Triethylammonium Salt] | 11.4 ± 0.3 | 312 ± 54 | 8.5 ± 1.6 | 17.2 ± 1.3 | 362 ± 85 | 0.97 ± 0.42 | 0.78 | 1.4 ± 0.3 | fold more potent in MIC than the 3′-α-fluoro diastereomer [3]: ca. 50 fold; fold more potent in MbtA inhibition than the 3′-α-fluoro diastereomer [4]: ~100 fold
CCN(CC)CC.Nc1ncnc2c1ncn2[C@@H]1O[C@H](CNS(=O)(=O)NC(=O)c2ccccc2O)[C@@H](F)[C@H]1F [compound 17, 9-[2,3,5-Trideoxy-2,3-difluoro-5-{N-(N-2-hydroxybenzoyl)sulfamoyl}amino-β-D-ribofuranosyl]adenine Triethylammonium Salt] | 5.3 ± 1.3 | 10100 ± 2200 | 0.24 ± 0.06 | 267 ± 36 | 4730 ± 540 | 5.99 ± 0.56 | 37 | 139 ± 10 | fold increase in half-life compared to SAL-AMS (10) [5]: ca. 25 fold; fold higher Cmax compared to SAL-AMS (10) ([5]; p.o. 25 mg/kg): 15 fold; fold increase in F% compared to SAL-AMS (10) ([5]; p.o. 25 mg/kg): fourfold; fold increased oral exposure (oral AUC) compared to SAL-AMS (10) ([5]; p.o. 25 mg/kg): ca. 75 fold

— publication PMC4674167 (The Journal of organic chemistry, 2015)
